# Source: US7803766B2, “Gastrin compositions and formulations, and methods of use and preparation” (Warath Pharmaceuticals, Inc, priority 2002, dated 2010)
# Where a SMILES comes first, the peptide text is derived from it. [ ]: non-standard residue; d: D form. pGlu = O=C1CC[C@@H](C(=O)O)N1
# Legend:
# [1] = cynomolgus monkey, in vivo
# Protocol: Male animals were used in the example. Each animal received gastrin by intravenous administration (3 μg/kg, 10 μg/kg and 30 μg/kg). The dosing solutions for intravenous injection were administered as a single bolus dose via the saphenous vein at a dose volume of 1 mL/kg. A 0.2 mL saline flush was administered following dosing in order to ensure administration of the complete dose volume. The actual volume administered to each animal was based on the animal's most recent body weight.
# Serial blood samples (approximately 0.5 ml per time point) were collected via the brachial or femoral vein at the following time points: 0 (pre-dose), 1, 3, 5, 10, 15, 30 minutes, 1, 2, and 4 hours post dose.
# Each sample was collected into a tube containing EDTA and kept on wet ice pending centrifugation. The samples were centrifuged under refrigeration for a minimum of 10 minutes at 1,500 g (RCF) and the resultant plasma was transferred into duplicate tubes and placed on dry ice. All samples were stored frozen for PK analysis as described below.
# Gastrin in plasma samples was measured with a well established competitive radioimmunoassay for the quantitative determination of gastrin (Russell et al., Postgraduate Medical Journal 52:645, 1976). […] The antigen was labeled with ^125I and the presence of the antigen:antibody reactions were detected using a gamma counter. […]
# [2] = test system: NOD mice with recent onset diabetes; assay: Modified and unmodified gastrin in combination with GLP-1 in preventing diabetes progression in NOD mice with recent onset diabetes; assay type: in vivo; conditions: 3 μg/kg/day gastrin equivalent with GLP-1 100 μg/kg/day i.p. daily for 14 days, compared to GLP-1 with native gastrin (Compound B)
# Source text: In this example, the effect of treatment by a combination of GLP-1 and unmodified gastrin and GLP-1 and modified gastrin compounds/conjugates were examined in NOD mice with recent onset diabetes, to determine whether administration of both GLP-1 and gastrin would prevent severe hyperglycemia as well as increase pancreatic insulin content in NOD mice with recent-onset diabetes. The GLP-1 used was GLP-1 which is the biologically active fragment of human/mouse GLP-1 (having residues at positions 7-36 compared to the precursor from which the fragment is processed; obtained from Bachem H6795). […]
# Non-obese diabetic (NOD) female mice, ages 12-14 weeks, were monitored for development of onset of diabetes (fasting blood glucose >8.0 to 15 mmol/l), and within 48 hours after onset of symptoms, four groups of mice were each treated as follows: one group was treated with vehicle only, and the other group was administered 100 μg/kg/day of GLP-1, and the remaining groups were treated with combination of GLP-1 (100 μg/kg/day) and gastrin compound (3 μg/kg/day gastrin equivalent), each treatment administered via the intraperitoneal route daily.
# Therapy was administered for 14 days. Animals were monitored weekly for fasting blood glucose (FBG) levels. FBG levels were measured at about 12 hours after food had been withdrawn, and 24 hours after the last peptide or vehicle injection. […]
# [3] = in vivo; cited from earlier work
compound,measurement,setting,value
CC(C)C[C@H](NC(=O)[C@H](Cc1c[nH]c2ccccc12)NC(=O)CNC(=O)[C@H](Cc1ccc(O)cc1)NC(=O)[C@H](C)NC(=O)[C@H](CCC(=O)O)NC(=O)[C@H](CCC(=O)O)NC(=O)[C@H](CCC(=O)O)NC(=O)[C@H](CCC(=O)O)NC(=O)[C@H](CCC(=O)O)NC(=O)[C@H](CC(C)C)NC(=O)[C@H](Cc1c[nH]c2ccccc12)NC(=O)[C@@H]1CCCN1C(=O)CNC(=O)[C@@H]1CCC(=O)N1)C(=O)N[C@@H](CC(=O)O)C(=O)N[C@@H](Cc1ccccc1)C(N)=O [Compound B] ([pGlu]GPWLEEEEEAYGWLDF-NH2),clearance from the bloodstream,[1],rapidly cleared
"Compound E: N-terminal Cys, gastrin residues 2-17 of SEQ ID NO: 4, no linker (GPWLEEEEEAYGWLDF; N-terminal Cys)",reduction of blood glucose levels,[2],more effecting in reducing blood glucose levels
"Gastrin-17: Native peptide hormone gastrin, 17-residue form (little gastrin or small gastrin)",circulating half-life,[3],5 to 9 min
